The source of these data is the supplement of paper PMC10307832.

Holding throughout (test): relative viability (nuclei count vs DMSO), 5 days (fraction); higher = more cells survive
Compound in experiment [1]: C1CSC2=C(C(=O)N1)SC3=C2C=C(C=C3)O [kb NB 142-70] + Nc1ncn([C@H]2C[C@H](O)[C@@H](CO)O2)c(=O)n1 [Decitabine] (partner 2 µM)
The gist of the method: (§1)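 The day after seeding in 1536-well plates, lung cancer cell lines were treated by pin tool with a single drug, or with a fixed anchor-drug dose together with five library-drug doses (not always all listed) in √10 steps. After 5 days, a combined fix-and-stain solution (final 0.05% Triton X-100, 1% formaldehyde, 1 ug/ml Hoechst) was added. Nuclei counted on 4× images gave relative viability as treated counts over vehicle counts, reported as the median of duplicate plates.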

Compound in experiment [2]: C1CSC2=C(C(=O)N1)SC3=C2C=C(C=C3)O [kb NB 142-70] + C[C@@H](Oc1cc(-c2cnn(C3CCNCC3)c2)cnc1N)c1c(Cl)ccc(F)c1Cl [Crizotinib] (partner 1 µM)
The gist of the method: as §1

Compound in experiment [3]: NCC(=O)Nc1ccc(-n2nc(C(F)(F)F)cc2-c2ccc3c(ccc4ccccc43)c2)cc1 + CS(=O)(=O)CCNCc1ccc(-c2ccc3ncnc(Nc4ccc(OCc5cccc(F)c5)c(Cl)c4)c3c2)o1 [Lapatinib] (partner 2 µM)
An outline of the steps: as §1

Compound in experiment [4]: C1CSC2=C(C(=O)N1)SC3=C2C=C(C=C3)O [kb NB 142-70] + Nc1nc2[nH]cc(CCc3ccc(C(=O)N[C@@H](CCC(=O)O)C(=O)O)cc3)c2c(=O)[nH]1 [Pemetrexed] (partner 0.2 µM)
The gist of the method:
as §1

Compound in experiment [5]: NCC(=O)Nc1ccc(-n2nc(C(F)(F)F)cc2-c2ccc3c(ccc4ccccc43)c2)cc1 + O=C(CCCCCCC(=O)Nc1ccccc1)NO [Vorinostat] (partner 1 µM)
The gist of the method:
as §1

In the case of UMC-11, the relative viability in experiment [1] (first compound 0.1 µM) is 0.547; in experiment [1] (first compound 1 µM), 0.639; in experiment [1] (first compound 3.162 µM) it was 0.378; in experiment [2] (first compound 0.1 µM), 0.698; in experiment [2] (first compound 1 µM), 0.601; in experiment [2] (first compound 3.162 µM), 0.277. Further, the relative viability in experiment [3] (first compound 0.02 µM) is 0.952; in experiment [3] (first compound 0.06325 µM), 1.09; in experiment [3] (first compound 0.2 µM), 0.985; in experiment [3] (first compound 0.6325 µM) it was 1.15; in experiment [3] (first compound 2 µM), 0.898; in experiment [4] (first compound 0.1 µM), 0.861. The relative viability in experiment [4] (first compound 1 µM) is 0.779; in experiment [4] (first compound 3.162 µM), 0.549; in experiment [5] (first compound 0.02 µM) it was 0.337; in experiment [5] (first compound 0.06325 µM) it was 0.434; in experiment [5] (first compound 0.2 µM) it was 0.511; in experiment [5] (first compound 0.6325 µM), 0.355. Besides, the relative viability in experiment [5] (first compound 2 µM) is 0.383.
